Data from patent US20260062422A1 (Halda Therapeutics OpCo, Inc., priority 2022, published 2026).

Legend:
VCaP cells = assay: Cellular growth inhibition assay for VCaP cells, CellTiter-Glo; assay type: cell-based, human; conditions: Homo sapiens, VCaP, 72 h, 72 hours treatment, CellTiter-Glo 2.0
Outline: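 GI50 values come from four-parameter curve fits of luminescence data normalized to a zero baseline. Compound, in medium with 0.5% DMSO, was added one day after plating and left for 72 h before CellTiter-Glo 2.0 addition.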

[1] = tested on: T-Rex 293 cell line SC3 cells having increased expression of androgen receptor protein due to exposure to doxycycline; assay: Cellular growth inhibition, T-Rex 293 SC3 cells with doxycycline (androgen receptor induced), CellTiter-Glo; assay type: cell-based; conditions: 72 h, T-Rex 293 SC3 cells with 10 ng/mL doxycycline (increased androgen receptor expression)
Outline: (§1)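 Doxycycline-inducible androgen receptor T-Rex 293 clone SC3, seeded at 2500/well in phenol red-free DMEM with 10% charcoal-dextran FBS, without doxycycline or with 10 ng/mL to induce receptor. Compound added after 24 h (0.5% DMSO), 72 h at 37 °C; CellTiter-Glo 2.0 luminescence, GI50 by four-parameter fit.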

[2] = tested on: T-Rex 293 cell line SC3 cells lacking increased expression of androgen receptor protein; assay: Cellular growth inhibition, T-Rex 293 SC3 cells without doxycycline, CellTiter-Glo; assay type: cell-based; conditions: 72 h, T-Rex 293 SC3 cells not exposed to doxycycline, CellTiter-Glo 2.0
Outline: as §1

SMILES: CCNC(=O)C[C@@H]1N=C(c2ccc(N3CCC(OC4CCN(c5ncc(C(=O)N[C@H]6C(C)(C)[C@H](Oc7ccc(C#N)c(Cl)c7)C6(C)C)cn5)CC4)CC3)cc2)c2c(sc(C)c2C)-n2c(C)nnc21 [Compound I-114]
- GI50 (VCaP cells): < 500 nM
- GI50 [1]: < 500 nM
- GI50 [2]: 500 to 1500 nM

SMILES: CCNC(=O)C[C@@H]1N=C(c2cccc(OCCOC3CCN(c4ncc(C(=O)N[C@H]5C(C)(C)[C@H](Oc6ccc(C#N)c(Cl)c6)C5(C)C)cn4)CC3)c2)c2c(sc(C)c2C)-n2c(C)nnc21 [Compound I-46, N-((1r,3r)-3-(3-chloro-4-cyanophenoxy)-2,2,4,4-tetramethylcyclobutyl)-2-(4-(2-(3-((S)-6-(2-(ethylamino)-2-oxoethyl)-2,3,9-trimethyl-6H-thieno[3,2-f][1,2,4]triazolo[4,3-a][1,4]diazepin-4-yl)phenoxy)ethoxy)piperidin-1-yl)pyrimidine-5-carboxamide]
- GI50 (VCaP cells): 500 to 1500 nM
- GI50 [1]: < 500 nM
- GI50 [2]: 500 to 1500 nM

SMILES: Cc1sc2c(c1C)C(c1ccc(CCCOC3CCN(c4ncc(C(=O)N[C@H]5C(C)(C)[C@H](Oc6ccc(C#N)c(Cl)c6)C5(C)C)cn4)CC3)cc1)=N[C@@H](CC(=O)NC(C)C)c1nnc(C)n1-2 [Compound I-100]
- GI50 (VCaP cells): 500 to 1500 nM
- GI50 [1]: < 500 nM
- GI50 [2]: > 3000 nM

SMILES: CCNC(=O)C[C@@H]1N=C(c2ccc(OCCOC3CCN(c4ncc(C(=O)N[C@H]5C(C)(C)[C@H](Oc6ccc(C#N)c(Cl)c6)C5(C)C)cn4)CC3)cc2)c2c(sc(C)c2C)-n2c(C)nnc21 [Compound I-60, N-((1r,3r)-3-(3-chloro-4-cyanophenoxy)-2,2,4,4-tetramethylcyclobutyl)-2-(4-(2-(4-((S)-6-(2-(ethylamino)-2-oxoethyl)-2,3,9-trimethyl-6H-thieno[3,2-f][1,2,4]triazolo[4,3-a][1,4]diazepin-4-yl)phenoxy)ethoxy)piperidin-1-yl)pyrimidine-5-carboxamide]
- GI50 (VCaP cells): 500 to 1500 nM
- GI50 [1]: < 500 nM
- GI50 [2]: < 500 nM

SMILES: Cc1sc2c(c1C)C(c1ccc(CCCOC3CCN(c4ncc(C(=O)N[C@H]5C(C)(C)[C@H](Oc6ccc(C#N)c(Cl)c6)C5(C)C)cn4)CC3)cc1)=N[C@@H](Cc1ncco1)c1nnc(C)n1-2 [Compound I-131, N-[3-(3-chloro-4-cyano-phenoxy)-2,2,4,4-tetramethyl-cyclobutyl]-2-[4-[3-[4-[(9S)-4,5,13-trimethyl-9-(oxazol-2-ylmethyl)-3-thia-1,8,11,12-tetrazatricyclo[8.3.0.02,6]trideca-2(6),4,7,10,12-pentaen-7-yl]phenyl]propoxy]-1-piperidyl]pyrimidine-5-carboxamide]
- GI50 (VCaP cells): < 500 nM
- GI50 [1]: < 500 nM
- GI50 [2]: < 500 nM

SMILES: Cc1sc2c(c1C)C(c1ccc(CC3CC(C4CCN(c5ncc(C(=O)N[C@H]6C(C)(C)[C@H](Oc7ccc(C#N)c(Cl)c7)C6(C)C)cn5)CC4)C3)cc1)=NC(Cc1ncco1)c1nnc(C)n1-2 (stereo partly drawn) [Compound I-136]
- GI50 (VCaP cells): < 500 nM
- GI50 [1]: < 500 nM
- GI50 [2]: > 3000 nM

SMILES: Cc1sc2c(c1C)C(c1ccc(CCC3CC4(CCCN(c5ncc(C(=O)N[C@H]6C(C)(C)[C@H](Oc7ccc(C#N)c(Cl)c7)C6(C)C)cn5)C4)C3)cc1)=N[C@@H](Cc1ncco1)c1nnc(C)n1-2 [Compound I-241]
- GI50 (VCaP cells): > 3000 nM
- GI50 [1]: < 500 nM
- GI50 [2]: < 500 nM

SMILES: Cc1sc2c(c1C)C(c1cccc(OCCOC3CCN(c4ncc(C(=O)N[C@H]5C(C)(C)[C@H](Oc6ccc(C#N)c(Cl)c6)C5(C)C)cn4)CC3)c1)=N[C@@H](CC(=O)O)c1nnc(C)n1-2 [Compound I-41]
- GI50 (VCaP cells): > 3000 nM
- GI50 [1]: 500 to 1500 nM
- GI50 [2]: > 3000 nM

SMILES: Cc1sc2c(c1C)C(c1cccc(OCCOCCOC3CCN(c4ncc(C(=O)N[C@H]5C(C)(C)[C@H](Oc6ccc(C#N)c(Cl)c6)C5(C)C)cn4)CC3)c1)=N[C@@H](CC(=O)O)c1nnc(C)n1-2 [Compound I-42]
- GI50 (VCaP cells): 1500 to 3000 nM
- GI50 [1]: 500 to 1500 nM
- GI50 [2]: > 3000 nM

SMILES: CCNC(=O)C[C@@H]1N=C(c2ccc(OCCOCCOC3CCN(c4ncc(C(=O)N[C@H]5C(C)(C)[C@H](Oc6ccc(C#N)c(Cl)c6)C5(C)C)cn4)CC3)cc2)c2c(sc(C)c2C)-n2c(C)nnc21 [Compound I-44]
- GI50 (VCaP cells): < 500 nM
- GI50 [1]: < 500 nM
- GI50 [2]: 500 to 1500 nM
